# Results taken from ChEMBL document CHEMBL3108667, “Potent and selective inhibitors of CDPK1 from T. gondii and C. parvum based on a 5-aminopyrazole-4-carboxamide scaffold” (ACS Med Chem Lett, 2014).
# What was measured:
# cells = conditions: Homo sapiens, CRL8155
# [1] = molecular target: T1, Calmodulin-domain protein kinase 1 (Toxoplasma gondii, UniProt Q9BJF5)
# T1 sequence (Q9BJF5 whole entry): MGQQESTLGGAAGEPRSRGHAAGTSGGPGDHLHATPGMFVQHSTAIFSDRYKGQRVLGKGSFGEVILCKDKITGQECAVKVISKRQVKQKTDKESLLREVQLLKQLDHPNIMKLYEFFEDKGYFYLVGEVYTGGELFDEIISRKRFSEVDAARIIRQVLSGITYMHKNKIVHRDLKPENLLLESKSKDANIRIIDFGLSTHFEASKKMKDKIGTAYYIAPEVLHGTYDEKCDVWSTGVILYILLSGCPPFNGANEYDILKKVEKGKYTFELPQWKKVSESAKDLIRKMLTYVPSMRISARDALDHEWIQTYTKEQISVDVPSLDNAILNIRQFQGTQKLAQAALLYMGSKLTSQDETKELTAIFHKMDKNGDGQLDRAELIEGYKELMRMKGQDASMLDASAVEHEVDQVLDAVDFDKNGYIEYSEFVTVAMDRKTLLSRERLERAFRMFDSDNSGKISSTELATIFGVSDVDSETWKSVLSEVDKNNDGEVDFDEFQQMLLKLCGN
# in vivo [2] = conditions: mouse, po, 10 mg/kg
# in vivo [3] = conditions: mouse, plasma, po, 10 mg/kg
SMILES,EC50 (cells),further results
CC(C)(C)n1nc(-c2cnc3ccccc3c2)c(C(N)=O)c1N,> 40 µM,–
CC(C)(C)n1nc(-c2ccc3c(N)n[nH]c3c2)c(C(N)=O)c1N,–,IC50 [1]: 0.04 µM
CCOc1ccc2cc(-c3nn(C(C)(C)C)c(N)c3C(N)=O)cnc2c1,> 30 µM,Cmax at 1 h (in vivo [2]): 10 µM; AUC (in vivo [3]): 41.7 µM·h

# More lines, main results first:
EC50 (cells),SMILES,further results
> 30 µM,CCOc1ccc2cc(-c3nn(C(C)(C)C)c(N)c3C(N)=O)ccc2c1,–
> 40 µM,CC(C)(C)Cn1nc(-c2ccc3ccccc3c2)c(C(N)=O)c1N,–
> 30 µM,NC(=O)c1c(-c2ccc3ccccc3c2)nn(CC(F)(F)F)c1N,–
> 40 µM,COc1ccc2cc(-c3nn(C(C)(C)C)c(N)c3C(N)=O)ccc2c1,–
